From ChEMBL document CHEMBL5661943, “ASAP - In vitro antiviral effect” (2024)

Columns and labels:
[1] = system: Zika virus; experiment: EC50 is reported via analysis of immunofluorescence staining. The assay has been performed by Icahn School of Medicine at Mount Sinai.; format: functional, organism-based, Chlorocebus sabaeus, VeroE6/TMPRSS2; conditions: Zika virus; for EC90: P-gp concentration 2 uM, P-gp inhibitor Elacidar
[2] = system: dengue virus type 2; experiment: Functional immunofluorescence assay to measure dose dependent changes in antiviral-drug inhibitory efficacy against Dengue virus type 2 Thailand/16681/84 in Vero E6/TMPRSS2 cells (cotreated with P-gp inhibitor, Elacridar). Cells are treated with antiviral candidates that are serially diluted, following infection, cells are fixed. EC50 is reported via analysis of immunofluorescence staining. The assay has been performed by Icahn School of Medicine at Mount Sinai.; format: organism-based, Chlorocebus sabaeus, VeroE6/TMPRSS2; conditions: Dengue virus

| Structure (SMILES) | EC50 ([1]; VeroE6/TMPRSS2) | EC50 ([2]; VeroE6/TMPRSS2) | other results |
| --- | --- | --- | --- |
| NCc1cccc([C@@H]2C[C@H]2c2cc(Cl)cc(NC(=O)OCc3ccccc3)c2)c1 | > 5.56 µM | > 5.56 µM | EC90 ([1]; VeroE6/TMPRSS2, Maximum measured 125.497 %, Minimum measured 83.326 %): > 5.56 µM; EC90 ([2]; VeroE6/TMPRSS2, Maximum measured 134.824 %, Minimum measured 97.991 %, P-gp concentration 2 uM, P-gp inhibitor Elacidar): > 5.56 µM |
| N#C[C@H](Nc1cccc(-c2nn[nH]n2)c1)c1cc(Cl)cc(NC(=O)OCc2ccccc2)c1 | > 50 µM | > 50 µM | EC90 ([1]; VeroE6/TMPRSS2, Maximum measured 138.49 %, Minimum measured 54.48 %): > 50 µM; EC90 ([2]; VeroE6/TMPRSS2, Baseline response 0 %, Hill slope -0.37, Maximum measured 135.235 %, Maximum response 100 %, Minimum measured 60.402 %, P-gp concentration 2 uM, R squared 0.119, P-gp inhibitor Elacidar): > 50 µM |
| CC[C@H](Cc1nnn[nH]1)c1ccc(NC(=O)c2cc(Cl)cc(-n3cccc3)c2)cc1 | 46.8 µM | 42.5 µM | EC90 ([1]; VeroE6/TMPRSS2, Baseline response 0 %, Hill slope -17.276, Maximum measured 183.537 %, Maximum response 154.104 %, Minimum measured 37.545 %, R squared 0.817): > 50 µM; EC90 ([2]; VeroE6/TMPRSS2, Baseline response 0 %, Hill slope -23.366, Maximum measured 115.315 %, Maximum response 100 %, Minimum measured 2.218 %, P-gp concentration 2 uM, R squared 0.505, P-gp inhibitor Elacidar): 46.7 µM |
| O=S(=O)(Nc1cccc(-c2nnn[nH]2)c1)c1cc(Cl)cc(-c2ccccc2)c1 | > 50 µM | 0.611 µM | EC90 ([1]; VeroE6/TMPRSS2, Maximum measured 155.311 %, Minimum measured 93.761 %): > 50 µM; EC90 ([2]; VeroE6/TMPRSS2, Baseline response 0 %, Hill slope -0.304, Maximum measured 103.918 %, Maximum response 100 %, Minimum measured 7.141 %, P-gp concentration 2 uM, R squared 0.457, P-gp inhibitor Elacidar): > 50 µM |
| C[C@@H](N)c1cccc(NC(=O)[C@H]2[C@H]3CCCCC[C@H]3[C@H]2NC(=O)OCc2ccccc2)c1 | > 5.56 µM | > 5.56 µM | EC90 ([1]; VeroE6/TMPRSS2, Maximum measured 138.527 %, Minimum measured 84.272 %): > 5.56 µM; EC90 ([2]; VeroE6/TMPRSS2, Baseline response 0 %, Hill slope -0.267, Maximum measured 104.495 %, Maximum response 100 %, Minimum measured 46.505 %, P-gp concentration 2 uM, R squared 0.299, P-gp inhibitor Elacidar): > 5.56 µM |
| CCOc1cccc(-c2ccc(S(=O)(=O)Nc3cc4c(cc3C(=O)O)CCC4)cc2)c1 | > 50 µM | > 16.7 µM | EC90 ([1]; VeroE6/TMPRSS2, Baseline response 0 %, Hill slope -16.078, Maximum measured 130.08 %, Maximum response 100 %, Minimum measured 52.734 %, R squared 0.304): > 50 µM; EC90 ([2]; VeroE6/TMPRSS2, Baseline response 0 %, Hill slope -0.37, Maximum measured 131.408 %, Maximum response 100 %, Minimum measured 56.89 %, P-gp concentration 2 uM, R squared 0.244, P-gp inhibitor Elacidar): > 16.7 µM |
| O=C(Nc1cc(Cl)cc(C(=O)Nc2cccc([C@H]3CCNC3)c2)c1)OCc1ccccc1 | 42.7 µM | > 5.56 µM | EC90 ([1]; VeroE6/TMPRSS2, Baseline response 0 %, Hill slope -21.619, Maximum measured 167.541 %, Maximum response 100 %, Minimum measured 3.263 %, R squared 0.234): 47.3 µM; EC90 ([2]; VeroE6/TMPRSS2, Maximum measured 260.488 %, Minimum measured 106.051 %, P-gp concentration 2 uM, P-gp inhibitor Elacidar): > 5.56 µM |
| CCOC(=O)Nc1cc(Cl)cc(C(=O)Nc2cccc(CN)c2)c1 | > 50 µM | > 16.7 µM | EC90 ([1]; VeroE6/TMPRSS2, Maximum measured 144.074 %, Minimum measured 100.96 %): > 50 µM; EC90 ([2]; VeroE6/TMPRSS2, Maximum measured 179.291 %, Minimum measured 97.679 %, P-gp concentration 2 uM, P-gp inhibitor Elacidar): > 16.7 µM |
| O=C(Nc1cc(Cl)cc(S(=O)(=O)Nc2cccc(-c3nn[nH]n3)c2)c1)OCc1ccccc1 | > 16.7 µM | > 50 µM | EC90 ([1]; VeroE6/TMPRSS2, Maximum measured 147.808 %, Minimum measured 131.825 %): > 16.7 µM; EC90 ([2]; VeroE6/TMPRSS2, Maximum measured 125.288 %, Minimum measured 43.28 %, P-gp concentration 2 uM, P-gp inhibitor Elacidar): > 50 µM |
| NCc1ccc(F)c(NC(=O)c2cc(Cl)cc(NC(=O)OCc3ccccc3)c2)c1 | > 5.56 µM | > 5.56 µM | EC90 ([1]; VeroE6/TMPRSS2, Maximum measured 191.718 %, Minimum measured 113.213 %): > 5.56 µM; EC90 ([2]; VeroE6/TMPRSS2, Maximum measured 158.385 %, Minimum measured 97.578 %, P-gp concentration 2 uM, P-gp inhibitor Elacidar): > 5.56 µM |
| O=C(O)CCc1ccc(NC(=O)c2cc(Cl)cc(NC(=O)OCc3ccccc3)c2)cc1 | > 50 µM | 23.4 µM | EC90 ([1]; VeroE6/TMPRSS2, Maximum measured 138.099 %, Minimum measured 61.86 %): > 50 µM; EC90 ([2]; VeroE6/TMPRSS2): 44.4 µM |
| O=C(Nc1cc(Cl)cc(C(=O)Nc2cc(Br)cc(-c3nnn[nH]3)c2)c1)OCc1ccccc1 | 41.4 µM | 11.4 µM | EC90 ([1]; VeroE6/TMPRSS2, Baseline response 0 %, Hill slope -35.305, Maximum measured 180.813 %, Maximum response 100 %, Minimum measured 13.985 %, R squared 0.137): 44.1 µM; EC90 ([2]; VeroE6/TMPRSS2, Baseline response 0 %, Hill slope -3.68, Maximum measured 234.045 %, Maximum response 186.52 %, Minimum measured 36.837 %, P-gp concentration 2 uM, R squared 0.67, P-gp inhibitor Elacidar): > 16.7 µM |
| C=CC[C@H](Nc1cc(Cl)cc(NC(=O)OCc2ccccc2)c1)c1cccc(-c2nn[nH]n2)c1 | 14.2 µM | 0.449 µM | EC90 ([1]; VeroE6/TMPRSS2, Baseline response 0 %, Hill slope -24.201, Maximum measured 231.442 %, Maximum response 100 %, Minimum measured 2.044 %, R squared 0.135): 15.6 µM; EC90 ([2]; VeroE6/TMPRSS2): 4.92 µM |
| CC[C@H](Cc1nn[nH]n1)c1ccc(N[C@H](C(=O)NC)c2cc(Cl)cc(NC(=O)OCc3ccccc3)c2)cc1 | > 50 µM | > 50 µM | EC90 ([1]; VeroE6/TMPRSS2, Maximum measured 168.95 %, Minimum measured 107.074 %): > 50 µM; EC90 ([2]; VeroE6/TMPRSS2, Baseline response 0 %, Hill slope -0.218, Maximum measured 117.472 %, Maximum response 100 %, Minimum measured 37.097 %, P-gp concentration 2 uM, R squared 0.193, P-gp inhibitor Elacidar): > 50 µM |
| CNC(=O)[C@H](Nc1cc(Cl)cc(NC(=O)OCc2ccccc2)c1)c1cccc(-c2nn[nH]n2)c1 | > 50 µM | > 50 µM | EC90 ([1]; VeroE6/TMPRSS2, Maximum measured 214.272 %, Minimum measured 122.906 %): > 50 µM; EC90 ([2]; VeroE6/TMPRSS2, Baseline response 0 %, Hill slope -0.094, Maximum measured 132.889 %, Maximum response 100 %, Minimum measured 51.11 %, P-gp concentration 2 uM, R squared 0.041, P-gp inhibitor Elacidar): > 50 µM |
| CC[C@H](Cc1nnn[nH]1)c1ccc(NC(=O)[C@H]2[C@H]3CCCCC[C@H]3[C@H]2NC(=O)OCc2ccccc2)cc1 | > 50 µM | 16.1 µM | EC90 ([1]; VeroE6/TMPRSS2, Baseline response 0 %, Hill slope -0.151, Maximum measured 102.715 %, Maximum response 100 %, Minimum measured 55.5 %, R squared 0.202): > 50 µM; EC90 ([2]; VeroE6/TMPRSS2): 44.8 µM |
| CC(=O)Nc1cc(Cl)cc(C(=O)Nc2cccc(CN)c2)c1 | > 50 µM | > 16.7 µM | EC90 ([1]; VeroE6/TMPRSS2, Baseline response 0 %, Hill slope 0.296, Maximum measured 131.154 %, Maximum response 100 %, Minimum measured 80.704 %, R squared 0.041): > 50 µM; EC90 ([2]; VeroE6/TMPRSS2, Maximum measured 143.919 %, Minimum measured 91.997 %, P-gp concentration 2 uM, P-gp inhibitor Elacidar): > 16.7 µM |
| O=C(Nc1cc(Cl)cc(C(=O)Nc2cc(-c3nnn[nH]3)ccc2F)c1)OCc1ccccc1 | > 16.7 µM | > 50 µM | EC90 ([1]; VeroE6/TMPRSS2, Maximum measured 136.099 %, Minimum measured 71.047 %): > 16.7 µM; EC90 ([2]; VeroE6/TMPRSS2, Baseline response 0 %, Hill slope -0.699, Maximum measured 181.18 %, Maximum response 100 %, Minimum measured 75.606 %, P-gp concentration 2 uM, R squared 0.051, P-gp inhibitor Elacidar): > 50 µM |
| Cc1ccc(-c2nnn[nH]2)cc1NC(=O)c1cc(Cl)cc(NC(=O)OCc2ccccc2)c1 | > 16.7 µM | 40.5 µM | EC90 ([1]; VeroE6/TMPRSS2, Maximum measured 182.406 %, Minimum measured 123.883 %): > 16.7 µM; EC90 ([2]; VeroE6/TMPRSS2, Baseline response 0 %, Hill slope -16.355, Maximum measured 369.361 %, Maximum response 277.036 %, Minimum measured 8.558 %, P-gp concentration 2 uM, R squared 0.765, P-gp inhibitor Elacidar): 46.3 µM |
| CCCC(=O)Nc1cc(Cl)cc(C(=O)Nc2cccc(CN)c2)c1 | > 16.7 µM | > 50 µM | EC90 ([1]; VeroE6/TMPRSS2, Baseline response 0 %, Hill slope -0.382, Maximum measured 108.39 %, Maximum response 100 %, Minimum measured 82.052 %, R squared 0.052): > 16.7 µM; EC90 ([2]; VeroE6/TMPRSS2, Maximum measured 163.615 %, Minimum measured 116.069 %, P-gp concentration 2 uM, P-gp inhibitor Elacidar): > 50 µM |
| O=C(Nc1cc(Cl)cc(C(=O)Nc2ccc3c(c2)CNCCO3)c1)OCc1ccccc1 | 5.26 µM | 0.669 µM | EC90 ([1]; VeroE6/TMPRSS2, Baseline response 0 %, Hill slope -16.118, Maximum measured 155.613 %, Maximum response 100 %, Minimum measured 29.546 %, R squared 0.374): > 5.56 µM; EC90 ([2]; VeroE6/TMPRSS2, Baseline response 0 %, Hill slope -1.036, Maximum measured 111.022 %, Maximum response 100 %, Minimum measured 5.282 %, P-gp concentration 2 uM, R squared 0.817, P-gp inhibitor Elacidar): > 5.56 µM |
| CC[C@H](Cc1nnn[nH]1)c1ccc(NC(=O)c2cc(Cl)cc(C3CC3)c2)cc1 | > 50 µM | > 16.7 µM | EC90 ([1]; VeroE6/TMPRSS2, Maximum measured 167.989 %, Minimum measured 95.132 %): > 50 µM; EC90 ([2]; VeroE6/TMPRSS2, Maximum measured 194.23 %, Minimum measured 94.649 %, P-gp concentration 2 uM, P-gp inhibitor Elacidar): > 16.7 µM |
